Series [1] is described as follows: Equilibrium solubility in aqueous buffer (HPLC UV). The format is physicochemical. The note with it: thermodynamic from solid. The procedure:
The equilibrium solubility of compounds was measured in aqueous buffer. Excess amount of solid compound was added into buffer solution and the sample was briefly sonicated and then shaken at rt for 24 h. The sample was filtered and the concentration was analyzed by HPLC UV. A standard solution at 0.2 mg/mL was prepared in methanol or acetonitrile for each compound and used as an external standard for quantification. The scale utilized in Tables 2 is as follows: +++ greater than 1 mg/mL; ++ between 1 and 0.1 mg/mL; and + less than 0.1 mg/mL.

Another series has as its system A549 cells. The series is described as follows: Inhibition of cancer cell growth, MTT assay. The format is cell-based. The note with it: Homo sapiens; A549 cells, 72 h compound exposure, MTT; read-out: IC50. On the procedure: Inhibition of cell growth by compounds was measured using MTT assay (Mosmann, T., Journal of Immunological Methods, 1983, 65, 55-63). Tumor cell lines were purchased from ATCC (American Type Culture Collection, Manassas, Va.). All cell lines were maintained in RPMI 1640 (Hyclone) supplemented with 10% fetal bovine serum (FBS, Hyclone), glutamine (2 mM, Hyclone), and antibiotics (penicillin 100 U/mL and streptomycin 50 μg/mL) at 37° C. in a humidified atmosphere of 5% CO2 in air. Taxol (as a positive control, Sigma) and compounds were dissolved in DMSO (Sigma), and the final concentration of DMSO in the medium was 1%. Tumor cells were plated in 96-well plates at densities of about 4000 cells/well of a 96-well plate and allowed to adhere/grow for 24 h. They were then treated with various concentrations of drug for 72 h. 3-(4,5-Dimethylthiazol-2-yl)-2,5-diphenyltetrazolium bromide (MTT, Sigma) was used to determine the number of viable cells at the time of compound addition and the number of cells remaining after 72 h compound exposure. The number of cells remaining after 72 h was compared to the number of viable cells at the time of compound addition by measuring the absorbance at 570 nm, allowing for the calculation of growth inhibition.
All concentrations of compounds were tested in triplicate and controls were averaged over 4 wells. IC50 was calculated by plotting the concentration of compound vs the percentage of inhibition in treated wells using GraphPad Prism 5. […] The scale utilized in Table 3 is as follows: ++++ less than 20 nM; +++ between 20 nM and 100 nM; ++ between 100 nM and 1000 nM; and + greater than 1000 nM.

Where [2] appears, read: aqueous buffer, equilibrium solubility, NaOAc/AcOH buffer (100 mM, pH 5.0), rt, 24 h, read-out: Solubility.

The solubility is how much of the substance goes into solution per volume. As a reminder, the IC50 is the concentration at which inhibition is half-maximal.

Converted amounts (≈) assume the structure as drawn. Where two headings read alike, the source gives them in different places. A value given as a limit tells only on which side of the number the result lay.

As to `C[C@]12CC[C@H](NC(=O)N3CCOCC3)C[C@H]1CC[C@@H]1[C@@H]2CC[C@]2(C)[C@@H](c3ccc(=O)oc3)CC[C@]12O` [Compound C02, N-((3S,5R,8R,9S,10S,13R,14S,17R)-14-hydroxy-10,13-dimethyl-17-(2-oxo-2H-pyran-5-yl)hexadecahydro-1H-cyclopenta[a]phenanthren-3-yl)morpholine-4-carboxamide], the solubility at 24 h in series [1] (setting [2]) was less than 100 µg/mL. In addition, the IC50 in the series with A549 cells was less than 20 nM.

As to `C[C@]12CC[C@H](NC(=O)N3CCNCC3)C[C@H]1CC[C@@H]1[C@@H]2CC[C@]2(C)[C@@H](c3ccc(=O)oc3)CC[C@]12O` [Compound C04, N-((3S,5R,8R,9S,10S,13R,14S,17R)-14-hydroxy-10,13-dimethyl-17-(2-oxo-2H-pyran-5-yl)hexadecahydro-1H-cyclopenta[a]phenanthren-3-yl)piperazine-1-carboxamide], the solubility at 24 h in series [1] (setting [2]) was greater than 1000 µg/mL. The IC50 in the series with A549 cells is less than 20 nM.

With `C[C@]12CC[C@H](NC(=O)NCCN)C[C@H]1CC[C@@H]1[C@@H]2CC[C@]2(C)[C@@H](c3ccc(=O)oc3)CC[C@]12O` [Compound C10, 1-(2-aminoethyl)-3-((3S,5R,8R,9S,10S,13R,14S,17R)-14-hydroxy-10,13-dimethyl-17-(2-oxo-2H-pyran-5-yl)hexadecahydro-1H-cyclopenta[a]phenanthren-3-yl)urea], the solubility at 24 h in series [1] (setting [2]) is greater than 1000 µg/mL. In addition, the IC50 with A549 cells was less than 20 nM.

As to `C[C@]12CC[C@H](NC(=O)CN)C[C@H]1CC[C@@H]1[C@@H]2CC[C@]2(C)[C@@H](c3ccc(=O)oc3)CC[C@]12O` [Compound C12, 2-amino-N-((3S,5R,8R,9S,10S,13R,14S,17R)-14-hydroxy-10,13-dimethyl-17-(2-oxo-2H-pyran-5-yl)hexadecahydro-1H-cyclopenta[a]phenanthren-3-yl)acetamide], the solubility at 24 h in series [1] (setting [2]) was greater than 1000 µg/mL. In the series with A549 cells, the half-maximal inhibitory concentration (IC50) is less than 20 nM.

In the case of `C[C@]12CCC(NCCN3CCOCC3)C[C@H]1CC[C@@H]1[C@@H]2CC[C@]2(C)[C@@H](c3ccc(=O)oc3)CC[C@]12O` (stereo partly drawn) [Compound C18, 5-((5R,8R,9S,10S,13R,14S,17R)-14-hydroxy-10,13-dimethyl-3-((2-morpholinoethyl)amino)hexadecahydro-1H-cyclopenta[a]phenanthren-17-yl)-2H-pyran-2-one], the solubility at 24 h in series [1] (setting [2]) is greater than 1000 µg/mL. Besides, in the series on A549 cells, the IC50 is 100 to 1000 nM.

On to `C[C@]12CCC(N3CCNC(=O)C3)C[C@H]1CC[C@@H]1[C@@H]2CC[C@]2(C)[C@@H](c3ccc(=O)oc3)CC[C@]12O` (stereo partly drawn) [Compound C19, 4-((5R,8R,9S,10S,13R,14S,17R)-14-hydroxy-10,13-dimethyl-17-(2-oxo-2H-pyran-5-yl)hexadecahydro-1H-cyclopenta[a]phenanthren-3-yl)piperazin-2-one], for which the solubility at 24 h in series [1] (setting [2]) is 100 to 1000 µg/mL (≈ 213 to 2130 µM). The 50% inhibitory concentration (IC50) with A549 cells was in the range of 20 to 100 nM.

In the case of `C[C@]12CCC(N3CCCC3)C[C@H]1CC[C@@H]1[C@@H]2CC[C@]2(C)[C@@H](c3ccc(=O)oc3)CC[C@]12O` (stereo partly drawn) [Compound C20, 5-((5R,8R,9S,10S,13R,14S,17R)-14-hydroxy-10,13-dimethyl-3-(pyrrolidin-1-yl)hexadecahydro-1H-cyclopenta[a]phenanthren-17-yl)-2H-pyran-2-one], in series [1] (setting [2]), the solubility at 24 h was greater than 1000 µg/mL. Besides, in the series with A549 cells, the IC50 is less than 20 nM.

Take `CC(C)[C@@H](N)C(=O)N(C)C1CC[C@@]2(C)[C@H](CC[C@@H]3[C@@H]2CC[C@]2(C)[C@@H](c4ccc(=O)oc4)CC[C@]32O)C1` (stereo partly drawn) [Compound C22, (2R)-2-amino-N-((5R,8R,9S,10S,13R,14S,17R)-14-hydroxy-10,13-dimethyl-17-(2-oxo-2H-pyran-5-yl)hexadecahydro-1H-cyclopenta[a]phenanthren-3-yl)-N,3-dimethylbutanamide]: the solubility at 24 h in series [1] (setting [2]) was greater than 1000 µg/mL. Further, the IC50 in the series on A549 cells was in the range of 20 to 100 nM.

Turning to `C[C@]12CCC(NC(=O)N3CCNCC3)C[C@H]1CC[C@@H]1[C@@H]2CC[C@]2(C)[C@@H](C3=CC(=O)OC3)CC[C@]12O` (stereo partly drawn) [Compound C24, N-((5R,8R,9S,10S,13R,14S,17R)-14-hydroxy-10,13-dimethyl-17-(5-oxo-2,5-dihydrofuran-3-yl)hexadecahydro-1H-cyclopenta[a]phenanthren-3-yl)piperazine-1-carboxamide], the solubility at 24 h in series [1] (pH 5, aqueous buffer) was greater than 1000 µg/mL. The half-inhibitory concentration (IC50) in the series with A549 cells lay in the range of 20 to 100 nM.

As for `C[C@@H](N)C(=O)N[C@H]1CC[C@@]2(C)[C@H](CC[C@@H]3[C@@H]2CC[C@]2(C)[C@@H](c4ccc(=O)oc4)CC[C@]32O)C1` [Compound C26, (R)-2-amino-N-((3S,5R,8R,9S,10S,13R,14S,17R)-14-hydroxy-10,13-dimethyl-17-(2-oxo-2H-pyran-5-yl)hexadecahydro-1H-cyclopenta[a]phenanthren-3-yl)propanamide], the solubility at 24 h in series [1] (setting [2]) is greater than 1000 µg/mL. Moreover, the IC50 with A549 cells was less than 20 nM.

As to `C[C@]12CCC(NCCN3CCCC3)C[C@H]1CC[C@@H]1[C@@H]2CC[C@]2(C)[C@@H](c3ccc(=O)oc3)CC[C@]12O` (stereo partly drawn) [Compound C27, 5-((5R,8R,9S,10S,13R,14S,17R)-14-hydroxy-10,13-dimethyl-3-((2-(pyrrolidin-1-yl)ethyl)amino)hexadecahydro-1H-cyclopenta[a]phenanthren-17-yl)-2H-pyran-2-one], in series [1] (setting [2]), the solubility at 24 h is greater than 1000 µg/mL. Further, the IC50 in the series with A549 cells was less than 20 nM.

With `C[C@]12CCC(N3CCOCC3)C[C@H]1CC[C@@H]1[C@@H]2CC[C@]2(C)[C@@H](c3ccc(=O)oc3)CC[C@]12O` (stereo partly drawn) [Compound C28, 5-((5R,8R,9S,10S,13R,14S,17R)-14-hydroxy-10,13-dimethyl-3-morpholinohexadecahydro-1H-cyclopenta[a]phenanthren-17-yl)-2H-pyran-2-one], the solubility at 24 h in series [1] (setting [2]) is greater than 1000 µg/mL. Further, the IC50 with A549 cells was 100 to 1000 nM.

For the compound `C[C@]12CCC(NC(=O)N3CCOCC3)C[C@@]1(O)CC[C@@H]1[C@@H]2CC[C@]2(C)[C@@H](c3ccc(=O)oc3)CC[C@]12O` (stereo partly drawn) [Compound C30, N-((5S,8R,9S,10R,13R,14S,17R)-5,14-dihydroxy-10,13-dimethyl-17-(2-oxo-2H-pyran-5-yl)hexadecahydro-1H-cyclopenta[a]phenanthren-3-yl)morpholine-4-carboxamide], the solubility at 24 h in series [1] (setting [2]) is 100 to 1000 µg/mL (≈ 194 to 1940 µM). Moreover, the IC50 in the series with A549 cells lay in the range of 20 to 100 nM.

Take `CN(CCO)C1CC[C@@]2(C)[C@H](CC[C@@H]3[C@@H]2CC[C@]2(C)[C@@H](c4ccc(=O)oc4)CC[C@]32O)C1` (stereo partly drawn) [Compound C32, 5-((5R,8R,9S,10S,13R,14S,17R)-14-hydroxy-3-((2-hydroxyethyl)(methyl)amino)-10,13-dimethylhexadecahydro-1H-cyclopenta[a]phenanthren-17-yl)-2H-pyran-2-one]: the solubility at 24 h in series [1] (setting [2]) was less than 100 µg/mL. Also, the IC50 with A549 cells was 100 to 1000 nM.

The values are drawn from patent publication US11325940B2, “Certain chemical entities, compositions, and methods” (NeuPharma, Inc., priority 2012, dated 2022).
